“Also recorded” adds a separate entry of the source.
B1: yCD2 protein: yeast cytosine deaminase with A23L/V108I/I140L substitutions, human codon optimized gene (SEQ ID NO:4) (protein, UniProt Q12178 1-158, looked up, variant A23L V108I I140L)
Cytosine deaminase: MVTGGMASKWDQKGMDIAYEEALLGYKEGGVPIGGCLINNKDGSVLGRGHNMRFQKGSATLHGEISTLENCGRLEGKVYKDTTLYTTLSPCDMCTGAIIMYGIPRCVIGENVNFKSKGEKYLQTRGHEVVVVDDERCKKLMKQFIDERPQDWFEDIGE

Columns and labels:
[1] = tested on: Mouse CT26 tumor explants; test: 5-FC cell killing assay (MTS) on CT26 tumor explants; format: cell-based; details: explant animal 31: CT26, AC3-yCD2(V) E5 + 5-FC, 3.5 5-FC dosings
[2] = tested on: recurrent anaplastic oligodendroglioma; test: Patient dog with spontaneous recurrent anaplastic oligodendroglioma, vector by CED plus 5-FC; details: second cycle 160 mg/kg/day by mouth, stopped after fifth day
U-87 cells = test: yCD protein level in infected U-87 cells (FIG. 4); format: cell-based, human

| Molecule | 5-FC sensitivity IC50 (mM) [1] | adverse event [2] | CD protein level compared to wild type yCD protein (U-87 cells) |
| --- | --- | --- | --- |
| Nc1nc(=O)[nH]cc1F [Vector 5-FC, 5-fluorocytosine] | poorly responsive; also recorded: Not sensitive | development of rash | – |
| B1 | – | – | higher levels |

— patent publication US10407666B2, “Recombinant vectors” (priority 2008, dated 2019)
